Reference: patent US20100179158A1, “INHIBITORS OF CYCLIC AMP PHOSPHODIESTERASES” (priority 2007, published 2010)

The compounds below were run against T1, PDE7A (Homo sapiens, UniProt Q13946) (assay: Fission yeast 5FOA growth assay, strain expressing PDE7A). Conditions: 5FOA growth.
T1 construct: targets used in the assays are full-length proteins (as opposed to simply the catalytic domain); expressed in transfected cells; host or cells: Schizosaccharomyces pombe, gene integrated at the cgs2 locus
T1 sequence (Q13946 whole entry, the tested form may be a part): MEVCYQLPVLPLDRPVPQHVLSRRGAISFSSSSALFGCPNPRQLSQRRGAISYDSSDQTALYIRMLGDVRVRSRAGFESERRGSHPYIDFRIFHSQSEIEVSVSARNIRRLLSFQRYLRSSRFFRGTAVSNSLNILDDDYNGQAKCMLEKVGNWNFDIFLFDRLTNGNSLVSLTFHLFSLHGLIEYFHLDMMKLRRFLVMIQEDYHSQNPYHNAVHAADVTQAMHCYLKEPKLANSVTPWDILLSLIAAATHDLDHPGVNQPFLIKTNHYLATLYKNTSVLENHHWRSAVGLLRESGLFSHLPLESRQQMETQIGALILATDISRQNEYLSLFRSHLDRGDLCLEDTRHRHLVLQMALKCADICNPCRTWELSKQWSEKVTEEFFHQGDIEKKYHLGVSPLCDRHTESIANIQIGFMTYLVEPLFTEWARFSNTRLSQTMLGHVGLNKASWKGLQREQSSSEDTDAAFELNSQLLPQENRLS
Type: cell-based
Experimental: (§1) Cells were pregrown in EMM medium [MP Biomedicals (Solon, OH), 3% glucose, filter-sterilized to avoid carmelization, which would introduce variability into the optical density of the medium] containing from 0 mM to 2.5 mM cAMP (or either 0.5 mM or 1.0 mM cGMP). This was to repress expression of the fbp1-ura4 reporter prior to exposure of cells to 5FOA medium. Cells were grown at 30° C. to exponential phase (approximately 10^7 cells/ml). Cells were collected by centrifugation and resuspended in 5FOA medium, and 25 μl were transferred to 384-well microtiter dishes (untreated, with flat clear bottoms) that had been pre-filled with 25 μl 5FOA medium and pre-pinned with 100 nl of compounds (stock solutions were generally 10 mM). Starting cell concentrations ranged from 0.5×10^5 to 4×10^5 cells/ml depending on the screening strain. […] Other positive control dishes contained 5 mM cAMP in the 5FOA medium for PDEs that lack appropriate control compounds. Cultures were grown for 48 hours at 30° C., sealed in an airtight container with moist paper towels to prevent evaporation. Optical densities (OD600) of cultures were measured using a microplate reader. Bioinformatic analysis of the results to determine composite Z scores was performed as previously described (1, 3).

ED50, PDE 7A | SMILES
ND ND weak activity ND ND | CC(C)(C)c1c(C#N)sc2sc(C#N)c(N)c12 [Compound 30-4]

The compounds below were run on PDE4A, PDE4B, PDE4D, PDE7A (assay: Overall PDE inhibitor profile from the yeast assays (table footnotes, summary)). Conditions: not given.
Type: cell-based
Excerpt: PDE inhibitors were identified using methods described herein, such as high throughput drug screens on genetically engineered fission yeast strains that express drug targets (e.g., PDE4A and/or PDE4B, which are anti-inflammatory targets). PDE inhibitors were identified based on their ability to stimulate growth and compounds were identified because they were effective in live cells. In addition, targets used in the assays are full-length proteins (as opposed to simply the catalytic domain) and the assay used included a built-in toxicity test, permeability test and stability test. The inhibitors identified display a very high degree of target specificity. Compounds identified include inhibitors that act on two of three PDE4 family enzymes and inhibitors that act on combinations of PDE4 and PDE7 strains. […] Limited inhibition of PDE4D by a PDE inhibitor is desirable, in view of the fact that inhibition of PDE4D causes emesis and cardiac arrhythmias. Subtype specificity was confirmed by means of cAMP assays.
as §1

SMILES | PDE inhibitor profile in words (table footnote / summary)
C=CCn1c2ccc(Br)cc2c2nc3ccccc3nc21 [2017, C18] | (2)-(4) Moderate PDE4A, 4B inhibitors
C=CCn1c2ccccc2c2nc3ccccc3nc21 [1427, P20] | (3) Strong 4B, Moderate 4A inhibitor
CCOC(=O)c1sc2sc(C(=O)OCC)c(-c3ccco3)c2c1N [Compound 30-1] | (4) Weak PDE4A inhibitor
COC(=O)C1=C(C)N(CC(C)C)C(=O)/C1=C\c1cccs1 [Compound 27-3] | (1) Strong PDE4A, 4B inhibitor
N#Cc1sc2sc(C#N)c(-c3ccc(Cl)cc3)c2c1N [Compound 30-3] | (3) Little/no activity under conditions used
CC(C)Cn1c2ccccc2c2nc3ccccc3nc21 [1422, M02] | (1) Strong PDE4A inhibitor
CCC(=O)C1=C(C)N(c2cccc(C(F)(F)F)c2)C(=O)/C1=C\c1cccs1 [Compound 27-7] | (3) Strong PDE4A5 inhibitor
C=CCn1c2ccc(Br)cc2c2nc3ccccc3nc21 [2019, G03] | (2)-(4) Moderate PDE4A, 4B inhibitors
N#Cc1sc2sc(C#N)c(-c3ccco3)c2c1N [Compound 30] | (2) Strong PDE7A inhibitor
COC(=O)C1=C(C)N(c2ccccc2Cl)C(=O)/C1=C\c1ccco1 [Compound 27-8] | (2) Strong PDE4A, 4B inhibitor
C=Cn1c2ccccc2c2nc3ccccc3nc21 [2033, H06] | (1) Moderate to strong PDE4A, 4B inhibitor
COC(=O)C1=C(C)N(C)C(=O)/C1=C\c1cccs1 [Compound 27-2] | (2) Strong PDE4A, 4B inhibitor; Moderate PDE4D inhibitor
Cc1cc(C)nc(SCC[S+]([O-])c2ccc(C(C)(C)C)cc2)n1 (centres unmarked) [Compound 26-2] | (2) Moderate 4A inhibitor
COC(=O)C1=C(C)N(C)C(=O)/C1=C\c1cccs1 [Compound 27-1] | (1) Strong PDEA5 inhibitor
Cc1ccc2c(c1)CC[C@@H]1CC(=O)CC[C@@]21C [Compound 2158J12] | (2) Strong PDE7A and PDE4s (including D) inhibitor
CC(C)(C)c1c(C#N)sc2sc(C#N)c(N)c12 [Compound 30-4] | (3) Little/no activity under conditions used
O=C(O)Cn1c2ccc(Cl)cc2c2nc3ccccc3nc21 [1429, L06] | (4) Moderate PDE4A, 4B inhibitor
COC(=O)C1=C(C)N(Cc2ccccc2)C(=O)/C1=C\c1cccs1 [Compound 27-4] | (1) Strong PDE4A, 4B inhibitor
COC(=O)C1=C(C)N(c2cccc(C)c2)C(=O)/C1=C\c1cccs1 [Compound 27-5] | (2) Strong PDE4A, 4B inhibitor, Moderate PDE4D inhibitor
CC(C)Cn1c2ccc(Br)cc2c2nc3ccccc3nc21 [2015, L04] | (5) Moderate 4B inhibitor
COc1ccc2c(c1)[C@]1(C)CCC[C@@](C)(CO)C1CC2 (some centres unmarked) [Compound 2067M03] | (1) Strong PDE7A inhibitor, Weak to moderate PDE4A, 4B inhibitor
CCCCn1c2ccccc2c2nc3ccccc3nc21 [2013, I20] | (2) Strong PDE4A inhibitor
CCCCn1c2ccccc2c2nc3ccccc3nc21 [2015, P06] | (2)-(4) Moderate PDE4A, 4B inhibitors
N#Cc1sc2sc(C#N)c(-c3cccs3)c2c1N [Compound 30-2] | (1) Weak PDE7A inhibitor
CCC(=O)C1=C(C)N(c2ccc(F)cc2)C(=O)/C1=C\c1cccs1 [Compound 27-6] | (4) Strong PDE4A, 4B inhibitor, Moderate PDE7A inhibitor
